Laboratory results taken from patent US5202437A, “3-pyrrolidinylthio-1-azabicyclo(3.2.0)-hept-2-ene-2-carboxylic acid compounds” (Fujisawa Pharmaceutical Company, Ltd., priority 1988, dated 1993).
In brackets after ≈: the same amount, converted by molar mass.

Tested on: P. aeruginosa 26
Assay: in vitro Antimicrobial Activity (two-fold agar-plate dilution method)
Assay type: cell-based
Conditions: Pseudomonas aeruginosa, heart infusion agar, 10^6 viable cells per ml, 37° C. for 20 hours, read-out: minimal inhibitory concentration (MIC)
Protocol: in vitro Antimicrobial Activity was determined by the two-fold agar-plate dilution method as described blow.
One loopful of an overnight culture of a test strain in Trypticase-soy broth (10^6 viable cells per ml) was streaked on heart infusion agar (HI-agar) containing graded concentrations of the test compound, and the minimal inhibitory concentration (MIC) was expressed in terms of μg/ml after incubation at 37° C. for 20 hours.
The compound of Example 2.

`C[C@@H](O)[C@H]1C(=O)N2C(C(=O)O)=C(S[C@@H]3CN[C@H](CN4CCNCC4)C3)[C@H](C)[C@H]12` [Example 2, (4R,5S,6S)-6-[(1R)-1-hydroxyethyl]-4-methyl-7-oxo-3-[(2S,4S)-2-(piperazin-1-yl)methylpyrrolidin-4-yl]thio-1-azabicyclo[3.2.0]hept-2-ene-2-carboxylic acid] gave an MIC of 0.39 µg/mL (≈ 0.95 µM).
